Reference: patent US20210009564A1, “CALPAIN MODULATORS AND THERAPEUTIC USES THEREOF” (BLADE THERAPERTICS, INC., priority 2018, published 2021)

Key:
[1] = system: Calpain activity in SH-SY5Y cells; test: SH-SY5Y spectrin breakdown product (SBDP-150) western blot assay; type: cell-based; settings: Homo sapiens; SH-SY5Y cells, 25 uM A23187, SBDP-150 western blot; read-out: SH-SY5Y Spectrin IC50
[2] = target: T1, Human Calpain 1/NS1 (Homo sapiens, UniProt P07384); test: Calpain inhibition, continuous fluorescence (FRET substrate) assay, calpain 1; type: biochemical; settings: SensoLyte 520 FRET substrate, 25C
T1 sequence (P07384 1-714): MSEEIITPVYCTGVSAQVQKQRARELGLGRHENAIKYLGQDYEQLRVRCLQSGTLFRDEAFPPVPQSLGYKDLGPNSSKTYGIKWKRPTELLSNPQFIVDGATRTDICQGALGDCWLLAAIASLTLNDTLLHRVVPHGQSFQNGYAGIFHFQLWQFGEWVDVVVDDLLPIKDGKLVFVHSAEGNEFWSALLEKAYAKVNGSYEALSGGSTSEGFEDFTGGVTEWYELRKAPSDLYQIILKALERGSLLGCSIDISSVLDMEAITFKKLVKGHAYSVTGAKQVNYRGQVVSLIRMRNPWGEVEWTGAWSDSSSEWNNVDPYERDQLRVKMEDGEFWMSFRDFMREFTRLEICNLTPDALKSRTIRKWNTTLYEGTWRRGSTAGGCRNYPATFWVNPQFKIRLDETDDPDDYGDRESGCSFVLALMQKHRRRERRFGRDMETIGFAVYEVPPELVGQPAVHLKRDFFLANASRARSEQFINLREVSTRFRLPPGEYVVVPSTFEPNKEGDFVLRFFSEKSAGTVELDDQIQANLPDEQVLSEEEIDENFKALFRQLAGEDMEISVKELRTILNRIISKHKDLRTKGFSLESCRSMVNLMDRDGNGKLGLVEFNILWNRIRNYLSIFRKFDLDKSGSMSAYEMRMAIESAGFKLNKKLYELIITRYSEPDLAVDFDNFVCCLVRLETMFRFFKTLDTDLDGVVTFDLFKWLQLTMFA
T1 sequence (P04632 1-268 partner): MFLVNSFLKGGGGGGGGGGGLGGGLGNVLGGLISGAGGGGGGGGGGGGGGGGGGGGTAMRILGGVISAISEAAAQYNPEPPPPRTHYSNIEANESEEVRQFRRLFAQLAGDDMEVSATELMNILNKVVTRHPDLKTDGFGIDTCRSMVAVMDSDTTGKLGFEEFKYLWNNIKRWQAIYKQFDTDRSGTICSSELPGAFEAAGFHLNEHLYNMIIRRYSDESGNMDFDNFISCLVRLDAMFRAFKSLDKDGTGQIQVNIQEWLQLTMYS
Method: (§1) Calpain 1, 2, and 9 activity and inhibition thereof was assessed by means of a continuous fluorescence assay. The SensoLyte 520 Calpain substrate (Anaspec Inc) was optimized for detecting calpain activity. This substrate contains an internally quenched 5-FAM/QXLTM 520 FRET pair. Calpains 1, 2, and 9 cleave the FRET substrate into two separate fragments resulting in an increase of 5-FAM fluorescence that is proportional to calpain activity Assays were typically setup in black 384-well plates using automated liquid handling as follows. Calpain assay base buffer typically contains 50 mM Tris, pH 7.5, 100 mM NaCl and 1 mM DTT. Inhibitors were serially diluted in DMSO and used to setup 2× mixtures with calpains in the aforementioned buffer. After incubation at ambient temperature (25C), the reaction was initiated by adding a 2× mix of the fluorescent peptide substrate and CaCl2) (required for in-situ calpain activation) in the same buffer. Reaction progress curve data were typically collected for 10 min using excitation/emission wavelengths of 490 nm/520 nm on SpectraMax i3× or the FLIPR-Tetra plate readers (Molecular Devices Inc). Reaction rates were calculated from progress curve slopes typically over 1-5 min. Dose response curves (rate vs. log inhibitor concentration) were typically fit to a 4-parameter logistic function to extract IC50 values.

[3] = target: T2, Human Calpain 2/NS1 (Homo sapiens, UniProt P17655); test: Calpain inhibition, continuous fluorescence (FRET substrate) assay, calpain 2; type: biochemical; settings: SensoLyte 520 FRET substrate, 25C
T2 sequence (P17655 1-700): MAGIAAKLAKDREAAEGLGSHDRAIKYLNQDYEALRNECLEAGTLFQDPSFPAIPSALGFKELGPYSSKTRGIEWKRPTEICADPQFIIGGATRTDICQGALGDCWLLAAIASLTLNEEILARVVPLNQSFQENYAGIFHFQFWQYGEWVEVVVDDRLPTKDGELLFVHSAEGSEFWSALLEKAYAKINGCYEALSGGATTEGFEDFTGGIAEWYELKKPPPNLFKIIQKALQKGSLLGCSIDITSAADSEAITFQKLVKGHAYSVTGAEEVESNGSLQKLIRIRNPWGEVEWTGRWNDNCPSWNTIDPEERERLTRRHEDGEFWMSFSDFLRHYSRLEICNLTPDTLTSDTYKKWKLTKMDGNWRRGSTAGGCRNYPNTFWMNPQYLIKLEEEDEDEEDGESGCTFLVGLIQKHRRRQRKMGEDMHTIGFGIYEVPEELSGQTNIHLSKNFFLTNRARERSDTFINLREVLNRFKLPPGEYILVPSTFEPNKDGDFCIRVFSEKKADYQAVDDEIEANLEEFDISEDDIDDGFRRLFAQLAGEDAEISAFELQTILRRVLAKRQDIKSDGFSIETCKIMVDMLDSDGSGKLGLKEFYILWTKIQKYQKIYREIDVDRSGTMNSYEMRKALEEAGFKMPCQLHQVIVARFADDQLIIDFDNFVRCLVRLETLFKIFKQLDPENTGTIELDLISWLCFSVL
T2 sequence (P04632 1-268 partner): T1 sequence (P04632 1-268 partner)
Method: as §1

[4] = target: T3, Human Calpain 9/NS1 (Homo sapiens, UniProt O14815); test: Calpain inhibition, continuous fluorescence (FRET substrate) assay, calpain 9; type: biochemical; settings: SensoLyte 520 FRET substrate, 25C
T3 sequence (O14815 1-690): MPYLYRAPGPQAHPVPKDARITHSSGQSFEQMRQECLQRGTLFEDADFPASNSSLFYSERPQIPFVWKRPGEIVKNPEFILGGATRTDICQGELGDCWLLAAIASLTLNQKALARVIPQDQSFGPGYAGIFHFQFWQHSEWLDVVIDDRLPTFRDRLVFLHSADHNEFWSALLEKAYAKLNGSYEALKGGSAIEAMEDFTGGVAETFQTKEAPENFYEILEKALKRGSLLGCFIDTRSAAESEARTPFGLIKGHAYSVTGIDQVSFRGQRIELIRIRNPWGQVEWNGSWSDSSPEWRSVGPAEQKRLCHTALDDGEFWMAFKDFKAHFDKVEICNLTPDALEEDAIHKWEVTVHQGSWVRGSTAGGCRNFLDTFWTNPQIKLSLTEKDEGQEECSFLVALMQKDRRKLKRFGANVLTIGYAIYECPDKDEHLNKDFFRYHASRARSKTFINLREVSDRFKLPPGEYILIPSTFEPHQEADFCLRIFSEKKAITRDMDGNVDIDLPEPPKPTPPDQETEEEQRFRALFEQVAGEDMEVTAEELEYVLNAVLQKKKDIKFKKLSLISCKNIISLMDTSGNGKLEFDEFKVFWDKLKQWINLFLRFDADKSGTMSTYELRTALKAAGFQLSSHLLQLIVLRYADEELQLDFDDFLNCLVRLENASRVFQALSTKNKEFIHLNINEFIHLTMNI
T3 sequence (P04632 1-268 partner): T1 sequence (P04632 1-268 partner)
Method: as §1

[5] = system: Calpain activity in SH-SY5Y cells; test: SH-SY5Y Suc-LLVY-AMC fluorescence assay; type: cell-based; settings: Homo sapiens; SH-SY5Y cells, 100 uM Suc-LLVY-AMC; read-out: SH-SY5Y + AMC IC50

For `NC(=O)C(=O)C(Cc1ccccc1)NC(=O)c1cn(C(F)F)nc1-c1cnc2ccccc2n1` (centres unmarked) [Compound 25, N-(4-AMINO-3,4-DIOXO-1-PHENYLBUTAN-2-YL)-1-(DIFLUOROMETHYL)-3-(QUINOXALIN-2-YL)-1H-PYRAZOLE-4-CARBOXAMIDE], the IC50 [1] was 10 to 25 µM, the IC50 [2] was < 3 µM and the IC50 [3] was < 3 µM. For the same compound, the IC50 [4] was < 3 µM.
In the case of `Cn1cc(C(=O)NC(Cc2ccccc2)C(=O)C(N)=O)c(-c2cccc3cnn(C)c23)n1` (centres unmarked) [Compound 33, N-(4-AMINO-3,4-DIOXO-1-PHENYLBUTAN-2-YL)-1-METHYL-3-(1-METHYL-1H-INDAZOL-7-YL)-1H-PYRAZOLE-4-CARBOXAMIDE], the IC50 [1] is reported as > 25 µM, the IC50 [2] is reported as 3 to 10 µM and the IC50 [3] is reported as < 3 µM. The IC50 [4] was < 3 µM.
With `O=C(O)C(=O)C(Cc1ccccc1)NC(=O)c1nsnc1-c1cccc2oc(=O)[nH]c12` (centres unmarked) [Compound 106, 2-OXO-3-4-(2-OXO-2,3-DIHYDROBENZO[D]OXAZOL-4-YL)-1,2,5-THIADIAZOLE-3-CARBOXAMIDO)-4-PHENYLBUTANOIC ACID] the IC50 [2] was < 3 µM, the IC50 [3] was < 3 µM and the IC50 [4] was < 3 µM. For the same compound, the IC50 [5] was 10 to 25 µM.
`O=C(O)C(=O)C(Cc1ccccc1)NC(=O)c1nsnc1-c1cccc2c1OC(F)(F)O2` (centres unmarked) [Compound 107, 3-(4-(2,2-DIFLUOROBENZO[D][1,3]DIOXOL-4-YL)-1,2,5-THIADIAZOLE-3-CARBOXAMIDO)-2-OXO-4-PHENYLBUTANOIC ACID] was tested, and the IC50 [2] was < 3 µM, the IC50 [3] was < 3 µM and the IC50 [4] was < 3 µM. The IC50 [5] was 10 to 25 µM.
`Cc1nc(-c2c(F)cccc2F)c(C(=O)NC(Cc2ccccc2)C(=O)C(=O)O)o1` (centres unmarked) [Compound 108, 3-(4-(2,6-DIFLUOROPHENYL)-2-METHYLOXAZOLE-5-CARBOXAMIDO)-2-OXO-4-PHENYLBUTANOIC ACID] was tested, and the IC50 [2] was < 3 µM, the IC50 [3] was < 3 µM and the IC50 [4] was < 3 µM. For the same compound, the IC50 [5] was < 10 µM.
In the case of `CN(C)NC(=O)C(=O)C(Cc1ccccc1)NC(=O)c1nsnc1-c1ccccc1` (centres unmarked) [Compound 109, N-(4-(2,2-DIMETHYLHYDRAZINEYL)-3,4-DIOXO-1-PHENYLBUTAN-2-YL)-4-PHENYL-1,2,5-THIADIAZOLE-3-CARBOXAMIDE], the IC50 [2] is reported as < 3 µM, the IC50 [3] is reported as < 3 µM and the IC50 [4] is reported as < 3 µM. It also gave an IC50 [5] of 10 to 25 µM.
In the case of `O=C(NC(Cc1ccccc1)C(=O)CO)c1nsnc1-c1ccccc1` (centres unmarked) [Compound 111, N-(4-HYDROXY-3-OXO-1-PHENYLBUTAN-2-YL)-4-PHENYL-1,2,5-THIADIAZOLE-3-CARBOXAMIDE], the IC50 [2] is reported as 3 to 10 µM, the IC50 [3] is reported as 3 to 10 µM and the IC50 [4] is reported as > 10 µM. The IC50 [5] was > 25 µM.
With `Cn1cc(C(=O)NC(Cc2ccccc2)C(=O)C(N)=O)c(-c2cccc3c2OC(C)(C)O3)n1` (centres unmarked) [Compound 112, N-(4-AMINO-3,4-DIOXO-1-PHENYLBUTAN-2-YL)-3-(2,2-DIMETHYLBENZO[D][1,3]DIOXOL-4-YL)-1-METHYL-1H-PYRAZOLE-4-CARBOXAMIDE] the IC50 [2] was < 3 µM, the IC50 [3] was < 3 µM and the IC50 [4] was < 3 µM. For the same compound, the IC50 [5] was > 25 µM.
With `CONC(=O)C(=O)C(Cc1ccccc1)NC(=O)c1cccnc1-n1ccc(-c2ccccc2)n1` (centres unmarked) [Compound 113, N-(4-(METHOXYAMINO)-3,4-DIOXO-1-PHENYLBUTAN-2-YL)-2-(3-PHENYL-1H-PYRAZOL-1-YL)NICOTINAMIDE] the IC50 [2] was < 3 µM, the IC50 [3] was < 3 µM and the IC50 [4] was < 3 µM. It also gave an IC50 [5] of 10 to 25 µM.
`CC(C)n1c(=O)oc2c(-c3nn(C)cc3C(=O)NC(Cc3ccccc3)C(=O)C(N)=O)cccc21` (centres unmarked) [Compound 114, N-(4-AMINO-3,4-DIOXO-1-PHENYLBUTAN-2-YL)-3-(3-ISOPROPYL-2-OXO-2,3-DIHYDROBENZO[D]OXAZOL-7-YL)-1-METHYL-1H-PYRAZOLE-4-CARBOXAMIDE] was tested, and the IC50 [2] was < 3 µM, the IC50 [3] was < 3 µM and the IC50 [4] was < 3 µM. The IC50 [5] was > 25 µM.
`NC(=O)C(=O)C(Cc1ccccc1)NC(=O)c1nsnc1-c1cccc2c1CC(=O)N2` (centres unmarked) [Compound 115, N-(4-AMINO-3,4-DIOXO-1-PHENYLBUTAN-2-YL)-4-(2-OXOINDOLIN-4-YL)-1,2,5-THIADIAZOLE-3-CARBOXAMIDE] was tested, and the IC50 [2] was < 3 µM, the IC50 [3] was < 3 µM and the IC50 [4] was < 3 µM. For the same compound, the IC50 [5] was < 10 µM.
